Data on 22 compounds can be found in ChEMBL document CHEMBL2311486, “Development of vizantin, a safe immunostimulant, based on the structure-activity relationship of trehalose-6,6'-dicorynomycolate” (J Med Chem, 2013).

Data set [1] has as its system Macrophage. As to the kind of experiment: Immunostimulatory activity in ICR mouse macrophage assessed as induction of phagocytic activity measuring MIP-1beta secretion at 50 uM after 2 hrs by ELISA. Format: functional, cell-based.
For data set [2], the system named is Macrophage. As to the kind of experiment: Immunostimulatory activity in ICR mouse macrophage assessed as induction of phagocytic activity measuring IL-6 secretion at 50 uM after 2 hrs by ELISA. The class given is functional, cell-based. For orientation: In an ELISA, binding on a coated surface is turned into a signal by an enzyme label.
In data set [3] the test system is Mus musculus. As to the kind of experiment: Antitumor activity against mouse B16F0 cells allografted in C57BL/6 mouse assessed as inhibition of lung metastasis at 1000 ug, iv administered at 7-day interval over 14 days prior to tumor implantation measured on day 28 relative to control. Format: functional.
Another data set has as its system DLD-1. As to the kind of experiment: Immunostimulatory activity in human DLD1 cells assessed as induction of MIP-1beta release at 100 uM after 3 hrs by ELISA. Format: functional, cell-based.
Data set [4] deals with THP-1. As to the kind of experiment: Immunostimulatory activity in human THP1 cells assessed as induction of MIP-1beta release at 100 uM after 3 hrs by ELISA. Format: functional, cell-based.
The test system of another data set is A549. As to the kind of experiment: Immunostimulatory activity in human A549 cells assessed as induction of MIP-1beta release at 100 uM after 3 hrs by ELISA. Format: functional, cell-based.
The test system of data set [5] is Mus musculus. As to the kind of experiment: Immunostimulatory activity in ICR mouse assessed as induction of IL-6 release at 100 uM, iv after 2 hrs by ELISA. The class given is functional, organism-based.
The subject of data set [6] is Mus musculus. As to the kind of experiment: Immunostimulatory activity in ICR mouse assessed as induction of MIP-1beta release at 100 uM, iv after 2 hrs by ELISA. Format: functional, organism-based.
Data set [7] deals with Macrophage. As to the kind of experiment: Immunostimulatory activity in ICR mouse macrophage assessed as induction of phagocytic activity at 50 uM after 2 hrs by fluorescent microsphere assay. The class given is functional, cell-based.
The subject of data set [8] is Mus musculus. As to the kind of experiment: Antitumor activity against mouse B16F0 cells allografted in C57BL/6 mouse assessed as inhibition of lung metastasis at 500 ug, iv administered at 7-day interval over 14 days prior to tumor implantation measured on day 28 relative to control. The class given is functional.
Data set [9] in a line: Antitumor activity against mouse B16F0 cells allografted in C57BL/6 mouse assessed as inhibition of lung metastasis at 100 ug, iv administered at 7-day interval over 14 days prior to tumor implantation measured on day 28 relative to control. Format: functional.
Data set [10] in a line: Antitumor activity against mouse B16F0 cells allografted in C57BL/6 mouse assessed as inhibition of lung metastasis at 100 ug, iv administered at 7-day interval over 14 days prior to tumor implantation measured on day 21 relative to control. The class given is functional.
Data set [11] relates to THP-1. As to the kind of experiment: Cytotoxicity against human THP1 cells assessed as induction of TNF-alpha release. The class given is cell-based.
Data set [12] has as its system Mus musculus. As to the kind of experiment: Toxicity in mouse assessed as mortality at 50 mg, ip administered at 7-day interval. Format: organism-based. The following applies: in vivo.
The test system of another data set is Salmonella typhimurium. As to the kind of experiment: Genotoxicity in Salmonella typhimurium TA98 after 30 mins by Ames test. The class given is toxicity, organism-based. The following applies: salmonella enterica subsp. enterica serovar typhimurium, 0.5 h. A general note: The Ames test detects mutagens through reverse mutation in bacteria.

Activity calls are given as the source filed them. No cut-off for these calls is given here. Bounds are passed on as bounds.

On to `CCCCCCCCCCCCCCC[C@@H](O)[C@@H](CCCCCCCCCCCCCC)C(=O)OC[C@H]1O[C@H](O[C@H]2O[C@H](COC(=O)[C@H](CCCCCCCCCCCCCC)[C@H](O)CCCCCCCCCCCCCCC)[C@@H](O)[C@H](O)[C@H]2O)[C@H](O)[C@@H](O)[C@@H]1O`, for which the result in the data set on Macrophage [1], in the data set with Macrophage [2], in the data set on Mus musculus [5], in the data set with Mus musculus [6] and in the data set on Macrophage [7] was Active. For the same compound, in the data set on Mus musculus [3], the “inhibition (INH)” value was 41%. Also, the result with DLD-1, with THP-1 [4] and in the data set on A549 was inactive.
For the compound `CCCCCCCCC(CCCCCCCC)CC(=O)OC[C@H]1O[C@H](O[C@H]2O[C@H](COC(=O)CC(CCCCCCCC)CCCCCCCC)[C@@H](O)[C@H](O)[C@H]2O)[C@H](O)[C@@H](O)[C@@H]1O`, the result in the data set on Mus musculus [5] and with Mus musculus [6] was Active.
Consider `CCCCCCCCCCCCCCC(CCCCCCCCCCCCCC)C(=O)OC[C@H]1O[C@H](O[C@H]2O[C@H](COC(=O)C(CCCCCCCCCCCCCC)CCCCCCCCCCCCCC)[C@@H](O)[C@H](O)[C@H]2O)[C@H](O)[C@@H](O)[C@@H]1O`, for which the outcome in the data set on Mus musculus [5] and in the data set on Mus musculus [6] was Active.
As to `CCCCCCCCCCCC(CCCCCCCCCCC)CC(=O)OC[C@H]1O[C@H](O[C@H]2O[C@H](COC(=O)CC(CCCCCCCCCCC)CCCCCCCCCCC)[C@@H](O)[C@H](O)[C@H]2O)[C@H](O)[C@@H](O)[C@@H]1O`, the result with Mus musculus [5] and in the data set with Mus musculus [6] was Active.
As for `CCCCCCCCCC(CCCCCCCCC)CCC(=O)OC[C@H]1O[C@H](O[C@H]2O[C@H](COC(=O)CCC(CCCCCCCCC)CCCCCCCCC)[C@@H](O)[C@H](O)[C@H]2O)[C@H](O)[C@@H](O)[C@@H]1O`, the outcome in the data set on Macrophage [7] was inactive.
As to `CCCCCCCCCCC(CCCCCCCCCC)C(=O)OC[C@H]1O[C@H](O[C@H]2O[C@H](COC(=O)C(CCCCCCCCCC)CCCCCCCCCC)[C@@H](O)[C@H](O)[C@H]2O)[C@H](O)[C@@H](O)[C@@H]1O`, the result in the data set on DLD-1, in the data set on THP-1 [4] and with A549 was inactive. Also, the result in the data set with Mus musculus [5], in the data set on Mus musculus [6] and with Macrophage [7] was Active.
With `CCCCCCCCCCCCCCCCC(CCCCCCCCCCCCCC)C(=O)OC[C@H]1O[C@H](O[C@H]2O[C@H](COC(=O)C(CCCCCCCCCCCCCC)CCCCCCCCCCCCCCCC)[C@@H](O)[C@H](O)[C@H]2O)[C@H](O)[C@@H](O)[C@@H]1O` (stereo not given in full), the outcome in the data set with Mus musculus [5], in the data set with Mus musculus [6] and in the data set with Macrophage [7] was Active.
In the case of `CCCCCCCCCCCCCC(CCCCCCCCCCCCC)CC(=O)OC[C@H]1O[C@H](O[C@H]2O[C@H](COC(=O)CC(CCCCCCCCCCCCC)CCCCCCCCCCCCC)[C@@H](O)[C@H](O)[C@H]2O)[C@H](O)[C@@H](O)[C@@H]1O`, the outcome with Mus musculus [5] and in the data set with Mus musculus [6] was Active.
Regarding `CCCCCCCCCCCCC(CCCCCCCCCCCC)CC(=O)OC[C@H]1O[C@H](O[C@H]2O[C@H](COC(=O)CC(CCCCCCCCCCCC)CCCCCCCCCCCC)[C@@H](O)[C@H](O)[C@H]2O)[C@H](O)[C@@H](O)[C@@H]1O`, the result in the data set with Mus musculus [5] and with Mus musculus [6] was Active.
For `CCCCCCCCCCCCCCCC(CCCCCCCCCCCCCCC)C(=O)OC[C@H]1O[C@H](O[C@H]2O[C@H](COC(=O)C(CCCCCCCCCCCCCCC)CCCCCCCCCCCCCCC)[C@@H](O)[C@H](O)[C@H]2O)[C@H](O)[C@@H](O)[C@@H]1O`, the result with Mus musculus [5] and with Mus musculus [6] was Active.
As to `CCCCCCCCCCCC(=O)O`, the outcome in the data set with Macrophage [7] was inactive.
As for `CCCCCCCCCCCC(CCCCCCCCCCC)C(=O)OC[C@H]1O[C@H](O[C@H]2O[C@H](COC(=O)C(CCCCCCCCCCC)CCCCCCCCCCC)[C@@H](O)[C@H](O)[C@H]2O)[C@H](O)[C@@H](O)[C@@H]1O`, the result in the data set with Mus musculus [5] and in the data set on Mus musculus [6] was Active.
`CCCCCCCCCCCCC(CCCCCCCCCCCC)C(=O)OC[C@H]1O[C@H](O[C@H]2O[C@H](COC(=O)C(CCCCCCCCCCCC)CCCCCCCCCCCC)[C@@H](O)[C@H](O)[C@H]2O)[C@H](O)[C@@H](O)[C@@H]1O`: the outcome with Mus musculus [5] and with Mus musculus [6] was Active.
In the case of `CCCCCCCCC(CCCCCCCC)CCC(=O)OC[C@H]1O[C@H](O[C@H]2O[C@H](COC(=O)CCC(CCCCCCCC)CCCCCCCC)[C@@H](O)[C@H](O)[C@H]2O)[C@H](O)[C@@H](O)[C@@H]1O`, the result in the data set on Macrophage [7] was inactive.
`CCCCCCCCCC(CCCCCCCCC)C(=O)OC[C@H]1O[C@H](O[C@H]2O[C@H](COC(=O)C(CCCCCCCCC)CCCCCCCCC)[C@@H](O)[C@H](O)[C@H]2O)[C@H](O)[C@@H](O)[C@@H]1O`: the result in the data set with Mus musculus [5] and with Mus musculus [6] was Active.
On to `CCCCCCCCCCCCCCCCC(CCCCCCCCCCCCCCCC)C(=O)OC[C@H]1O[C@H](O[C@H]2O[C@H](COC(=O)C(CCCCCCCCCCCCCCCC)CCCCCCCCCCCCCCCC)[C@@H](O)[C@H](O)[C@H]2O)[C@H](O)[C@@H](O)[C@@H]1O`, for which the outcome in the data set with Mus musculus [5] and in the data set with Mus musculus [6] was Active.
Consider `CCCCCCCCC(CCCCCCCC)C(=O)OC[C@H]1O[C@H](O[C@H]2O[C@H](COC(=O)C(CCCCCCCC)CCCCCCCC)[C@@H](O)[C@H](O)[C@H]2O)[C@H](O)[C@@H](O)[C@@H]1O`, for which the outcome in the data set on Mus musculus [5] and with Mus musculus [6] was Active.
As for `CCCCCCCCCCCCCCC[C@@H](OC)[C@@H](CCCCCCCCCCCCCC)C(=O)OC[C@H]1O[C@H](O[C@H]2O[C@H](COC(=O)[C@H](CCCCCCCCCCCCCC)[C@@H](CCCCCCCCCCCCCCC)OC)[C@@H](O)[C@H](O)[C@H]2O)[C@H](O)[C@@H](O)[C@@H]1O`, the outcome in the data set on Macrophage [1], in the data set on Macrophage [2] and in the data set with Macrophage [7] was Active.
In the case of `CCCCCCCCCCCCCCC(CCCCCCCCCCCCCC)CC(=O)OC[C@H]1O[C@H](O[C@H]2O[C@H](COC(=O)CC(CCCCCCCCCCCCCC)CCCCCCCCCCCCCC)[C@@H](O)[C@H](O)[C@H]2O)[C@H](O)[C@@H](O)[C@@H]1O`, the result in the data set on Mus musculus [5] and with Mus musculus [6] was Active.
Turning to `CCCCCCCCCC(CCCCCCCCC)CC(=O)OC[C@H]1O[C@H](O[C@H]2O[C@H](COC(=O)CC(CCCCCCCCC)CCCCCCCCC)[C@@H](O)[C@H](O)[C@H]2O)[C@H](O)[C@@H](O)[C@@H]1O` [VIZANTIN], the “inhibition (INH)” value is 66% in the data set on Mus musculus [3], 62% in the data set with Mus musculus [8], 57% in data set [9] and >98% in [10]. The Activity entry in the data set on THP-1 [11], in the data set with Mus musculus [12] and in the data set on Salmonella typhimurium was “Non-toxic” throughout. Further, the outcome in the data set on DLD-1 and in the data set on A549 was inactive. Also, the outcome in the data set on THP-1 [4], with Mus musculus [5], in the data set on Mus musculus [6] and in the data set with Macrophage [7] was Active.
As to `CCCCCCCCCCC(CCCCCCCCCC)CC(=O)OC[C@H]1O[C@H](O[C@H]2O[C@H](COC(=O)CC(CCCCCCCCCC)CCCCCCCCCC)[C@@H](O)[C@H](O)[C@H]2O)[C@H](O)[C@@H](O)[C@@H]1O`, the outcome with Mus musculus [5] and in the data set with Mus musculus [6] was Active.
Turning to `CCCCCCCCCCCCCC(CCCCCCCCCCCCC)C(=O)OC[C@H]1O[C@H](O[C@H]2O[C@H](COC(=O)C(CCCCCCCCCCCCC)CCCCCCCCCCCCC)[C@@H](O)[C@H](O)[C@H]2O)[C@H](O)[C@@H](O)[C@@H]1O`, the result in the data set with Mus musculus [5] and with Mus musculus [6] was Active.
